By inhibition is commonly meant the drop in the measured response relative to a control, in per cent. Usually IC50 stands for the concentration at which inhibition is half-maximal.

Data on eleven compounds can be found in US10093630B2, “Pyrazole compounds and methods of making and using same” (ABIDE THERAPEUTICS, INC., priority 2014, dated 2018).

Where two headings read alike, the source gives them in different places. Where only a bound is given, the exact number is not on record here.

Holding throughout (assay): In vitro competitive activity-based protein profiling (gel-based, FP-Rh or HT-01 probe)
What all share (type): biochemical

For one assay, the target named is T1, ABHD6 (Mus musculus, UniProt Q8R2Y0).
T1 construct: Proteomes (mouse brain membrane fraction or cell lysates); from tissue; host or cells: mouse brain membrane fraction (or cell lysates, not specified)
T1 sequence (Q8R2Y0 1-336): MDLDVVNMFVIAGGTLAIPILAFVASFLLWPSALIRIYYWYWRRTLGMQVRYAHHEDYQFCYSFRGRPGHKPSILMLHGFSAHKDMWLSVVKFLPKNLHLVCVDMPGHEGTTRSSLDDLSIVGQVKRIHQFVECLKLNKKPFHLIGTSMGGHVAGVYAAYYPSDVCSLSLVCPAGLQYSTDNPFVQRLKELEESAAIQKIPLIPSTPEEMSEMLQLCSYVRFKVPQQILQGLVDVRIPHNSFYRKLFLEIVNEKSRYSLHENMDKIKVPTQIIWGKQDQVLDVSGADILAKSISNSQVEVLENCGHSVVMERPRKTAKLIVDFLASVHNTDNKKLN
To be noted: for inhibition at 1 µM: 1 μM inhibitor, read-out: % Inhibition at 1 μM, C = ABHD6; for inhibition at 10 µM: 10 μM inhibitor, read-out: % Inhibition at 10 μM, C = ABHD6; for IC50: mouse brain membrane fraction or cell lysates, 30 min preincubation at 37° C., read-out: Mouse (IC50 value, nM) ABHD6. The gist of the method: (§1)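 Competitive labelling format in mouse brain membrane fractions or lysates at 1.0 mg/mL total protein: compounds preincubate 30 min at 37° C, activity probe FP-Rh or HT-01 then reacts 30 min at 37° C. Gel band fluorescence gives target activity.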

The target in a further assay is T2, FAAH (Mus musculus, UniProt O08914).
T2 construct: Proteomes (mouse brain membrane fraction or cell lysates); from tissue; host or cells: mouse brain membrane fraction (or cell lysates, not specified)
T2 sequence (O08914 1-579): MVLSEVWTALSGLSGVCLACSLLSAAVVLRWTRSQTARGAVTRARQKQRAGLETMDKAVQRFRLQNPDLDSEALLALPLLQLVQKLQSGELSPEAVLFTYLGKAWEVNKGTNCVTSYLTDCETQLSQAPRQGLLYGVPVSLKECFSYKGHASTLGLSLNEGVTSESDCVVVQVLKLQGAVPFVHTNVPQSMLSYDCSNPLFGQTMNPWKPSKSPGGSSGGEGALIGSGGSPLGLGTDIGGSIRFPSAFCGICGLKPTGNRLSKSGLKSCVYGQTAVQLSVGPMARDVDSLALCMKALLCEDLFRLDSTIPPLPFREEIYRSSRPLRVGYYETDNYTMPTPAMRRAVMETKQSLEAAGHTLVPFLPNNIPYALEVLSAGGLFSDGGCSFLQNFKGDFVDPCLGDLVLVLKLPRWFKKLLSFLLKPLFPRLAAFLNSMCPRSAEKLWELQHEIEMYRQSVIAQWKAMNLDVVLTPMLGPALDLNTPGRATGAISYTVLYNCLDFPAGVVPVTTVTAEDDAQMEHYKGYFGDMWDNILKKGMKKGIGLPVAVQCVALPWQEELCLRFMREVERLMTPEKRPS
To be noted: for inhibition at 1 µM: 1 μM inhibitor, read-out: % Inhibition at 1 μM, B = FAAH; for inhibition at 10 µM: 10 μM inhibitor, read-out: % Inhibition at 10 μM, B = FAAH; for IC50: mouse brain membrane fraction or cell lysates, 30 min preincubation at 37° C., read-out: Mouse (IC50 value, nM) FAAH. The essentials: as §1

Another assay concerns the target T3, MAGL (Mus musculus, UniProt O35678).
T3 construct: Proteomes (mouse brain membrane fraction or cell lysates); from tissue; host or cells: mouse brain membrane fraction (or cell lysates, not specified)
T3 sequence (O35678 1-303): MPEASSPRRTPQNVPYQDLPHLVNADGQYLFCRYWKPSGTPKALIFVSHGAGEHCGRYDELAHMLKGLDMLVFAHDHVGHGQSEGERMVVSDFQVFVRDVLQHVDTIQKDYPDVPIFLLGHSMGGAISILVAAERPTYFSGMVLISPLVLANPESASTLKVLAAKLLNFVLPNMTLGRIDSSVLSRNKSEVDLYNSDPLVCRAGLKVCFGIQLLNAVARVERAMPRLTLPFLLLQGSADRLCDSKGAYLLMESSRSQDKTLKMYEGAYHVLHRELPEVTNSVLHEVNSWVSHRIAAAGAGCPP
The settings on record: for inhibition at 1 µM: 1 μM inhibitor; for inhibition at 10 µM: 10 μM inhibitor; for IC50: mouse brain membrane fraction or cell lysates, 30 min preincubation at 37° C., read-out: Mouse (IC50 value, nM) MAGL. The gist of the method: as §1

A further assay concerns the target T4, PLA2G7 (Mus musculus, UniProt Q60963).
T4 construct: Proteomes (mouse brain membrane fraction or cell lysates); from tissue; host or cells: mouse brain membrane fraction (or cell lysates, not specified)
T4 sequence (Q60963 22-440): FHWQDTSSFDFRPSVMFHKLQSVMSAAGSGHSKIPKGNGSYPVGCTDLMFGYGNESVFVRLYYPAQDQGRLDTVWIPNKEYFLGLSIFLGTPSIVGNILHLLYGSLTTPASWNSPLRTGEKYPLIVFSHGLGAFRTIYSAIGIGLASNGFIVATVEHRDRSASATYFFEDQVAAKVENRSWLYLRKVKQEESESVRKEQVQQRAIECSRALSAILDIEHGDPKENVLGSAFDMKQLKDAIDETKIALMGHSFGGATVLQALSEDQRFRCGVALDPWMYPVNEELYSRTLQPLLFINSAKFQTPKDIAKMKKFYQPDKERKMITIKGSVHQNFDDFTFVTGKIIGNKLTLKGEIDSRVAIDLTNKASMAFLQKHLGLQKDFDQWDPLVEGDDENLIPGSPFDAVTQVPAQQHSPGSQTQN
The settings on record: for inhibition at 1 µM: 1 μM inhibitor, read-out: % Inhibition at 1 μM, D = PLA2G7; for inhibition at 10 µM: 10 μM inhibitor, read-out: % Inhibition at 10 μM, D = PLA2G7. The essentials: as §1

`O=C(N1CCN(Cc2ccc3ccccc3c2)CC1)n1cccn1` [Example 10, (4-(naphthalen-2-ylmethyl)piperazin-1-yl)(1H-pyrazol-1-yl)methanone]: the inhibition at 1 µM at ABHD6 is > 75%; on FAAH it was > 75%; on MAGL it was > 75%; on PLA2G7, < 25%. Also, the inhibition at 10 µM on ABHD6 is > 75%; at FAAH it was > 75%; at MAGL it was > 75%; at PLA2G7, < 25%. Also, the IC50 on MAGL was < 100 nM.

As for `Cc1ccccc1N1CCN(C(=O)n2cc(C(F)(F)F)cn2)CC1` [Example 230, (4-o-Tolylpiperazin-1-yl)(4-(trifluoromethyl)-1H-pyrazol-1-yl)methanone], the inhibition at 1 µM on ABHD6, at FAAH, on MAGL and at PLA2G7 was > 75% throughout. For the same compound, the inhibition at 10 µM at ABHD6, on FAAH, on MAGL and at PLA2G7 was > 75% in each case.

As to `Cc1cc(-c2ccccc2)ccc1CN1CCN(C(=O)n2cc(C(=O)N3CCOCC3)cn2)CC1` [Example 57, (4-((3-Methyl-[1,1′-biphenyl]-4-yl)methyl)piperazin-1-yl)(4-(morpholine-4-carbonyl)-1H-pyrazol-1-yl)methanone], the inhibition at 1 µM on ABHD6 was > 75%; on FAAH, > 75%; at MAGL it was > 75%; at PLA2G7 it was < 25%. The inhibition at 10 µM on ABHD6, at FAAH, on MAGL and at PLA2G7 was > 75% throughout. In addition, the 50% inhibitory concentration (IC50) at ABHD6 is 100 to 1000 nM; on FAAH, < 100 nM; on MAGL, 100 to 1000 nM.

Turning to `Cc1cnn(C(=O)N2CCCN(C(=O)c3ccccc3)CC2)c1` [Example 169, (4-Benzoyl-1,4-diazepan-1-yl)(4-methyl-1H-pyrazol-1-yl)methanone], the inhibition at 10 µM is 25 to 75% on ABHD6, < 25% at FAAH, 25 to 75% on MAGL and < 25% at PLA2G7.

On to `O=C(c1cnn(C(=O)N2CCN(Cc3cncnc3)CC2)c1)N1CCCC1` [Example 84, (4-(Pyrimidin-5-ylmethyl)piperazin-1-yl)(4-(pyrrolidine-1-carbonyl)-1H-pyrazol-1-yl)methanone], for which the inhibition at 1 µM at ABHD6, at FAAH, on MAGL and at PLA2G7 was < 25% throughout. Moreover, the inhibition at 10 µM was 25 to 75% at ABHD6, < 25% at FAAH, < 25% on MAGL and > 75% at PLA2G7.

Turning to `CC(=O)N1CCN(C(=O)n2cc(C(F)(F)F)cn2)CC1` [Example 149, 1-(4-(4-(Trifluoromethyl)-1H-pyrazole-1-carbonyl)piperazin-1-yl)ethanone], the inhibition at 1 µM on ABHD6 was < 25%; at FAAH, < 25%; on MAGL, < 25%; at PLA2G7, > 75%. The inhibition at 10 µM was 25 to 75% at ABHD6, < 25% at FAAH, 25 to 75% on MAGL and > 75% on PLA2G7.

Turning to `N#Cc1cnn(C(=O)N2CCN(Cc3ccc(C(=O)N4CCCCC4)cc3Cl)CC2)c1` [Example 282, 1-(4-(2-Chloro-4-(piperidine-1-carbonyl)benzyl)piperazine-1-carbonyl)-1H-pyrazole-4-carbonitrile], the inhibition at 1 µM on ABHD6 (gel-based competitive ABPP), on FAAH (gel-based competitive ABPP), at MAGL (gel-based competitive ABPP) and at PLA2G7 (gel-based competitive ABPP) was > 75% throughout. In addition, the inhibition at 10 µM at ABHD6 (gel-based competitive ABPP), at FAAH (gel-based competitive ABPP), on MAGL (gel-based competitive ABPP) and at PLA2G7 (gel-based competitive ABPP) was > 75% throughout.

`O=C(c1cnn(C(=O)N2CCN(Cc3ccncn3)CC2)c1)N1CCCCC1` [Example 73, Piperidin-1-yl(1-(4-(pyrimidin-4-ylmethyl)piperazine-1-carbonyl)-1H-pyrazol-4-yl)methanone]: the inhibition at 1 µM on ABHD6 is < 25%; at FAAH it was < 25%; at MAGL, < 25%; at PLA2G7, > 75%. Besides, the inhibition at 10 µM is > 75% on ABHD6, 25 to 75% on FAAH, < 25% on MAGL and > 75% on PLA2G7.

Take `CCN(Cc1ccc(C)cc1)C(=O)n1cc(C)cn1` [Example 257, N-Ethyl-4-methyl-N-(4-methylbenzyl)-1H-pyrazole-1-carboxamide]: the inhibition at 1 µM at ABHD6 (gel-based competitive ABPP), on FAAH (gel-based competitive ABPP), on MAGL (gel-based competitive ABPP) and on PLA2G7 (gel-based competitive ABPP) was < 25% in each case.

With `CS(=O)(=O)N1CCN(C(=O)n2cc(C#N)cn2)CC1` [Example 174, 1-(4-(Methylsulfonyl)piperazine-1-carbonyl)-1H-pyrazole-4-carbonitrile], the inhibition at 1 µM at ABHD6 is > 75%; at FAAH it was < 25%; on MAGL it was < 25%; at PLA2G7, > 75%. The inhibition at 10 µM at ABHD6 was > 75%; at FAAH, 25 to 75%; at MAGL, 25 to 75%; on PLA2G7 it was > 75%.

As for `CCN(Cc1ccc(Cl)cc1)C(=O)n1cc(Cl)cn1` [Example 131, 4-chloro-N-(4-chlorobenzyl)-N-ethyl-1H-pyrazole-1-carboxamide], the inhibition at 1 µM is < 25% on ABHD6, > 75% at FAAH, < 25% at MAGL and < 25% on PLA2G7. Moreover, the half-maximal inhibitory concentration (IC50) on ABHD6 was > 1000 nM; on FAAH it was < 100 nM; at MAGL it was > 1000 nM.
